In data set [1] the test system is S. aureus Mu50. The data set is described as follows: Minimal growth inhibitory concentration (broth macrodilution), S. aureus Mu50. The class given is cell-based, Staphylococcus aureus. Particulars: Staphylococcus aureus, MU50, read-out: MIC S. aureus Mu50. Here is the method:
(§1) B. subtilis 168 and Staphylococcus spp. were grown in cation adjusted Mueller–Hinton broth (CAMHB; Becton, Dickinson and Company) at 37 °C. B. subtilis SU570 were grown in the same medium at 30 °C. In all cases, the cells were grown to an absorbance of 0.1–0.2 at 600 nm and then incubated either with the compounds or DMSO vehicle. Microscopy assays and cell measurement were performed as previously described.[31] MIC values were determined by a broth macrodilution method.[51] MBC values were determined as the lowest concentration of inhibitor at which there was a 99.9% reduction in colony-forming units/mL compared to the inoculum. To construct a S. aureus strain expressing FtsZ-mCherry, the plasmid pCN-ftsZmch[9] was electroporated into RN4220 and 0.1 μM cadmium chloride (Sigma-Aldrich) was used to induce the expression of the construct under the control of the Pcad promoter.

Data set [2] in a line: Solubility in HEPES buffer with 2% DMSO, spectrophotometric. The class given is physicochemical. The settings on record: HEPES buffer containing 2% DMSO, 25 °C, aqueous buffer, kinetic from dmso stock; HEPES buffer pH 6.8 containing 2% DMSO. The protocol:
3.2. Solubility of Compounds. Stock solutions of compounds were prepared in
DMSO (spectroscopic grade, Merck) a nd stored at -20 °C. Compound solubility in 50
mM HEPES-KOH, 50 mM KCl, 1 mM EDTA, pH 6.8 (HEPES buffer) containing 2%
DMSO was determined spectrophotometrically, monitoring the linear correlation
between the absorbance and the compound concentration and the absence of light
scattering. The solutions were optionally centrifuged at 100000 rpm for 20 min at 25 °C
in a TLA100 rotor with a Beckman Optima Max -XP ultracentrifuge.

The target of data set [3] is T1, stabilized polymers of FtsZ from B. subtilis (Bacillus subtilis, UniProt P17865).
T1 construct: made in house
The data set is described as follows: Competition assay: displacement of probe (R)-5 from stabilized BsFtsZ-GMPCPP polymers. The class given is binding. Particulars: stabilized polymers of FtsZ from B. subtilis, probe (R)-5, mean ± SEM. The protocol:
(§2) FtsZ (10–15 μM) was assembled in HEPES buffer, 10 mM MgCl2, 50 μM GMPCPP at 25 °C for 10 min, and then 0.15% (v/v) glutaraldehyde[36] (distilled grade for microscopy, TAAB Laboratories, U.K.) was added to the solution that was incubated at 25 °C for 10 min more. (This was the minimal glutaraldehyde concentration determined to stabilize FtsZ polymers specifically binding probe 1.) The remains of the cross-linking agent were quenched by adding 60 mM NaBH4, the sample was incubated on ice for 10 min and degassed.[36] Cross-linked polymers were centrifuged for 10 min at 8200g (5000 rpm) and 4 °C in 15 mL Falcon tubes employing a Rotina 380R (Hettich) centrifuge, the supernatant was removed and the pellet was resuspended in the same volume of HEPES buffer, 10 mM MgCl2, containing 5 μM GMPCPP. Fixed FtsZ polymers were active in binding assays after more than 2 days at 4 °C; they could also be frozen in liquid nitrogen with a small loss of binding capacity. […] Cross-linked polymers of SaFtsZ were similarly prepared.
(§3) Competition assays were performed by measuring, through the decrease in fluorescence anisotropy, the displacement of the fluorescent probes from stabilized FtsZ polymers. Increasing concentrations of competing ligands were added to the mixtures of cross-linked FtsZ polymers (10–15 μM) with probe 1 (3 μM), 7–8 μM FtsZ polymers with probe (S)-2 (3 μM), or 2–3 μM FtsZ polymers with (R)-5 (3 μM). HEPES buffer with 10 mM MgCl2 and 0.1 mM GMPCPP was employed, with a final volume of 0.5 mL, and the anisotropy measured at 25 °C. Under these conditions, the initial fraction of the probe bound was between 0.4 and 0.5. The fraction of the probe bound (Vb) was calculated [drawing 1] where rfree and rmax are the anisotropy values of the free and bound probes, respectively, and R is the ratio between the fluorescence intensities of the bound and free probe (Table S1). The binding data were plotted against the competing ligand concentration and fitted by competition equilibrium of the ligand and the probe for the same binding site. The resulting system of equations[50] was numerically solved using the Equigra v. 5.0 program,[33] which provided the best-fitted value of the competitor binding constant.

For data set [4], the system named is B. subtilis. Kind of data set: Minimal division inhibitory concentration and cell division phenotype, B. subtilis. Particulars: for minimal effective concentration: Bacillus subtilis, read-out: MDC B. subtilis. The class given is cell-based, Bacillus subtilis. Here is the method:
as §1

Data set [5] concerns B. subtilis. The data set is described as follows: Minimal growth inhibitory concentration (broth macrodilution), B. subtilis. The class given is cell-based, Bacillus subtilis. The settings on record: Bacillus subtilis, read-out: MIC B. subtilis. The protocol:
as §1

Data set [6] concerns S. aureus Mu50. Kind of data set: Minimal division inhibitory concentration, S. aureus Mu50. The class given is cell-based. The settings on record: Staphylococcus aureus, MU50, read-out: MDC S. aureus Mu50. Here is the method:
as §1

Data set [7] deals with T2, stabilized FtsZ-GMPCPP polymers (Bacillus subtilis, UniProt P17865).
T2 construct: made in house
Kind of data set: Fluorescence anisotropy screen with probe (S)-2 at two compound concentrations. The settings on record: probe (S)-2 3 μM, compound 20 and 200 μM. The class given is binding. Here is the method:
Once the fluorescence method for ligand binding into the interdomain cleft was set up, we evaluated its potential to screen for FtsZ allosteric inhibitors. Complementary to this screen, cytological profiling tests of the identified binders allow ascertaining their ability to target FtsZ in bacterial cells. Fluorescence anisotropy measurements of probe (S)-2 at two concentrations of each tested compound (20 and 200 μM) were acquired; the solubility range of positively testing compounds was determined spectrophotometrically. […] The promiscuous inhibitors resveratrol,[40] plumbagin,[41] and tiplaxtinin[42] […] It should be noticed that aggregating compounds may sequester the protein or the probe or may scatter highly polarized light, potentially interfering with the fluorescence anisotropy measurements. Colored and fluorescent compounds can also interfere. Compounds initially testing positive in the anisotropy screen should thus be checked for any unexpected changes of the total fluorescence intensity in the same samples, as well as for any artefactual effects on replicates omitting FtsZ.
Figure 4 Fluorescence anisotropy screen for FtsZ allosteric inhibitors combined with cell-based methods. (A) Screen for FtsZ inhibitors employing the fluorescence anisotropy of probe (S)-2 (3 μM) and stabilized FtsZ-GMPCPP polymers (8 μM binding sites). The anisotropy values of the partially bound probe (void black circles), the free probe (void gray circles), and the values with two concentrations of each compound, 20 μM (gray circles) and 200 μM (black circles) are shown. Control values with the corresponding concentrations of dimethyl sulfoxide (DMSO) vehicle (2% void and gray circles; 4%, black circle) are also shown. (B) Chemical structures of synthetic ligands 6–26. (C) Effects of low-affinity inhibitors 6, 7, and 9 on B. subtilis 168 cell division. Raw data plots (n ≥ 30) are shown with the mean values marked (statistics in Table S2). The cells were incubated for 3 h with each compound, and cell lengths were measured. (D) Representative phase-contrast images of cells after 3 h with 7 or 9 (0.75 mM each). (E) Cellular localization of FtsZ-GFP in B. subtilis SU570 following growth for 1.5 h in the absence (inset) and presence of 7 (0.2 mM). Bars, 10 μm.
as §3

The target in data set [8] is T3, stabilized FtsZ-GMPCPP polymers (BsFtsZ) (Bacillus subtilis, UniProt P17865).
T3 construct: made in house
Kind of data set: Competition assay: displacement of probe (S)-2 from stabilized FtsZ-GMPCPP polymers. The class given is binding. Particulars: for Kd: (S)-2 3 μM, 8 μM binding sites. Here is the method:
as §2, §3

≈ marks a conversion by molar mass, not a printed value. Where “and” joins values, the source holds several entries; their conditions need not be identical. Equal entries are not always repeated. Where two headings read alike, the source gives them in different places.

T3 sequence (P17865 whole entry): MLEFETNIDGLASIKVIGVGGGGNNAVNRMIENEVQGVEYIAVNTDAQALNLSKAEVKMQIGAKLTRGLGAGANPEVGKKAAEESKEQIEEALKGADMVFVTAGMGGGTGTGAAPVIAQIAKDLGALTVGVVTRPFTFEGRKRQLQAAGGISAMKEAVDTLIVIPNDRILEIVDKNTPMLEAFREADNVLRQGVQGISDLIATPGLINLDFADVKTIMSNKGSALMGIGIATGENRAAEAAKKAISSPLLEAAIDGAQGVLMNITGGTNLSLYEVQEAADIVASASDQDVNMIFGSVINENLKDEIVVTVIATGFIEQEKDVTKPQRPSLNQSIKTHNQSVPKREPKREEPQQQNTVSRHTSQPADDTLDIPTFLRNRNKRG
T2 sequence (P17865 whole entry): as above
T1 sequence (P17865 whole entry): as above

One may read the MIC as the lowest concentration found to suppress growth. The solubility is how much of the substance goes into solution per volume. High values mean much dissolved substance, low ones little dissolved substance. For orientation: Kd means the free concentration of one partner at which half of the binding sites on the other are occupied at equilibrium, for simple one-to-one binding. With `CN(C)CCC(Oc1ccc(F)c(C(N)=O)c1F)c1cccc(C(F)(F)F)c1` (stereo not drawn) [Compound 24], the MIC in data set [1] and in data set [5] was above 100 µM throughout. For the same molecule, the solubility in data set [2] was above 1000 µM. In data set [3] (KD), this molecule registered a Kd of 145 ± 10 µM. Also, the minimal effective concentration in data set [4] was above 50 µM; in data set [6], above 100 µM.
In the case of `NC(=O)c1c(F)ccc(OCCc2cccc(C(F)(F)F)c2)c1F` [Compound 22], the MIC in data set [1] worked out at 200 µM (≈ 69.1 µg/mL); in data set [5], 50 µM (≈ 17.3 µg/mL). The molecule also gave a solubility in data set [2] above 100 µM. Moreover, the Kd in data set [3] (read-out: KD) is 5.9 ± 0.4 µM. For the same molecule, the minimal effective concentration in data set [4] turned out to be 15 µM; in data set [6], 100 µM.
In the case of `CC1=CC(=O)c2c(O)cccc2C1=O` [plumbagin, reference compound], the “result of the anisotropy screen, in words” value (“result” below) in data set [7] is “weakly modified anisotropy and total fluorescence intensity”. Moreover, the “inhibition of B. subtilis cell division, in words” value (“inhibition” below) in data set [4] is “none of them impaired B. subtilis cell division”.
`COc1ccc(F)c(C(N)=O)c1F` [DFMBA, 2,6-difluoro-3-methoxybenzamide, reference compound] had a Kd in data set [8] of 670 ± 50 µM.
Consider `CN(Cc1cccc(Cl)c1)c1ccc(C(N)=O)cc1` [Compound 10], for which, in data set [7], the “result” value is “weak binders”. Besides, in data set [8], the Kd was 250 µM and ~200 µM. The molecule also gave a solubility in data set [2] of at least 100 µM.
Take `O=C(O)CCN(Cc1ccccc1)Cc1cccc(Sc2ccccc2)c1` [PC170942]: the “result” value in data set [7] is reported as “no evidence of binding”.
On to `O=C(Oc1cc(OC(=O)c2cc(O)cc(O)c2)c2ccccc2c1)c1ccc(O)c(O)c1` [UCM44], for which, in data set [7], the “result” value was “marginal inhibitory effect”.
With `Oc1ccc(/C=C/c2cc(O)cc(O)c2)cc1` [resveratrol, reference compound], in data set [7], the “result” value was “weakly modified anisotropy and total fluorescence intensity”. In data set [4], the “inhibition” value is on record as “none of them impaired B. subtilis cell division”.
On to `O=C(O)C(=O)c1cn(Cc2ccccc2)c2ccc(-c3ccc(OC(F)(F)F)cc3)cc12` [tiplaxtinin, reference compound], for which, in data set [7], the “result” value is “weakly modified anisotropy and total fluorescence intensity”. Also, the “inhibition” value in data set [4] was “none of them impaired B. subtilis cell division”.
As for `Nc1nc2c(ncn2[C@@H]2O[C@H](COP(=O)(O)OP(=O)(O)O)[C@@H](O)[C@H]2O)c(=O)[nH]1` [GDP, guanosine diphosphate, reference compound], the “displacement of (S)-2 from its binding site, in words” value in data set [8] (negative control) was “does not displace”.
Regarding `OCc1nc2cc(Cl)cnc2s1` [CTPM, 6-(chloro[1,3]thiazolo[5,4-b]pyridin-2-yl)methanol, reference compound], the affinity in data set [8], expressed as Kd, was 1000 ± 100 µM.
Regarding `CCN(CC)CCNc1nc(/C=C/c2ccc(Cl)cc2)nc2cc3ccccc3cc12` [zantrin Z3], in data set [7], the “result” value is “no evidence of binding”.
Consider `NC(=O)c1cccc(OCCCc2cccc(Cl)c2)c1` [Compound 13], for which the values for the MIC in data set [1] and in data set [5] were above 100 µM and 100 µM (≈ 29 µg/mL), respectively. The solubility in data set [2] was 25 µM (≈ 7.24 µg/mL). The Kd in data set [3] (read-out: KD) came to 9.5 ± 0.5 µM. The minimal effective concentration in data set [4] turned out to be 25 µM.
With `NC(=O)c1c(F)ccc(OCc2ccc(C(F)(F)F)cc2)c1F` [Compound 21], the MIC in data set [1] amounted to 100 µM (≈ 33.1 µg/mL); in data set [5], 50 µM (≈ 16.6 µg/mL). Further, the concentration in solution in data set [2] (solubility) was 100 µM (≈ 33.1 µg/mL). Besides, the Kd in data set [3] (read-out: KD) was 6.7 ± 0.4 µM. Further, the minimal effective concentration in data set [4] came to 25 µM.
As to `NC(=O)c1c(F)ccc(OCCCc2cccc(C(F)(F)F)c2)c1F` [Compound 23], the MIC in data set [1] turned out to be 50 µM (≈ 18 µg/mL); in data set [5], 10 µM (≈ 3.59 µg/mL). In addition, the concentration in solution in data set [2] (solubility) came to 50 µM (≈ 18 µg/mL). Besides, the Kd in data set [3] (read-out: KD) was found to be 1.5 ± 0.1 µM. The minimal effective concentration in data set [4] came out at 5 µM; in data set [6], 25 µM.
`NC(=O)c1c(F)ccc(OCc2ccccc2C(F)(F)F)c1F` [Compound 19]: the MIC in data set [1] and in data set [5] was above 100 µM throughout. In data set [2], this molecule registered a solubility of 50 µM (≈ 16.6 µg/mL). In addition, in data set [3] (read-out: KD), the Kd was 71 ± 6 µM. Besides, the minimal effective concentration in data set [4] is above 100 µM.

(Values after publication PMC8478281, “Targeting the FtsZ Allosteric Binding Site with a Novel Fluorescence Polarization Screen, Cytological and Structural Approaches for Antibacterial Discovery” (Journal of Medicinal Chemistry, 2021).)
